Results reported in patent US20050112573A1, “Method of detecting toxic substance” (priority 2001, published 2005).

System: yeast genes (level of expressed mRNA)
Test: DNA chip analysis of expressed mRNA of yeast genes after 2 h culture with a toxic chemical substance
Assay type: cell-based, Saccharomyces cerevisiae S288C
Settings: for The level of expressed mRNA in the presence of chemical substance/ in its absence, gene YDL078C: yeast gene YDL078C; for The level of expressed mRNA in the presence of chemical substance/ (ratio to absence of chemical substance): stress protein genes, DNA chip
Description: Yeast (Saccharomyces cerevtisiae S288C (α SUC2mal mel gap2 CUP1)) were cultured at 25° C. on YPD medium (yeast extract 1%, polypepton 2%, glucose 2%). One of toxic chemical substances was added to the cell at logarithmic growth phase, and the cell was further cultured for two hours. Cell was cultured without any chemical substance in the same condition, and was used as control. Concentrations of the chemical substances were defined to inhibit the growth of the yeast but not lead to death.
After the completion of cultivation, the culture was centrifuged to collect the cells. To the cells, sodium acetate buffer (50 mM sodium acetate, 10 mM EDTA, 1% SDS) was added, and the mixture was shaken at 65° C. for five minutes, followed by returning to room temperature, and obtaining the supernatant, which procedure was repeated two times. To the supernatant, ½ amount of a solution of phenol/chloroform was added, and the mixture was centrifuged to give a supernatant, which was added with an equal amount of chloroform, and the mixture was centrifuged to give a supernatant. To the supernatant, an equal amount of isopropanol containing 0.3 M sodium acetate was added, and the mixture was allowed to stand at room temperature for 30 minutes, after which the mixture was centrifuged to give a sediment of the whole RNAs. Seventy % ethanol was added to the sediment, and the mixture was again centrifuged to give a sediment, which was then dried and dissolved in water. mRNA was isolated from the whole RNAs as followings. In view of the fact that a poly A chain is attached to the 3′ terminus of mRNA, a polynucleotide having a poly T structure which was immobilized on the surface of latex beads was used to trap the mRNA, and then the mRNA was washed and eluted with spine column (Oligotex-dT30<Super>mRNA Purification Kit, Takara). Reverse transcription of the mRNA was conducted with a reverse transcriptase (Super Script II Reverse Transcriptase; catalogue No. 18064-014, GibcoBRL) using fluorescence-labeled nucleotides to give cDNAs that were introduced with Cy3-dUTP or Cy5-dUTP during the reverse transcription.
The labeled cDNAs were dissolved in TE buffer (10 mM Tris-HCl/1 mM EDTA, pH8.0), and the solution was dropped on the DNA chip containing the whole genes of yeast (DNA Chip Research Inc. Japan) so that the cDNAs were hybridized on the DNA chip at 65° C. for over 12 hours. The fluoresces intensity of the DNA chip was read with a scanner, and the ratio relative to the fluorescence intensity resulting from the absence of chemical substance was estimated as the following, which is shown in Tables 1 to 9: [formula]
In the Tables, “Intensity” indicated in the rightmost column is a value of the level of expressed mRNA of each gene in control cells as divided by the average level of the expressions of the whole genes.

SMILES: S=C([S-])NCCNC(=S)[S-].[Zn+2] [(11), zinc N,N′-ethylenebis(dithiocarbamate)]
- The level of expressed mRNA in the presence of chemical substance/ in its absence, gene YDL078C (energy system protein genes, 2 h culture with the chemical, ratio to control without chemical): 1.7
- The level of expressed mRNA in the presence of chemical substance/ in its absence, gene YDL078C (ratio of DNA chip fluorescence intensity to that without chemical substance): 1.7
- The level of expressed mRNA in the presence of chemical substance/ (in its absence), gene YDL215C (yeast gene YDL215C, ratio of DNA chip fluorescence intensity to that without chemical substance): 0.8
- The level of expressed mRNA in the presence of chemical substance/The level of expressed mRNA in the absence of chemical substance (yeast gene YDL238C): 1.1
- The level of expressed mRNA in the presence of chemical substance/The level of expressed mRNA in the absence of chemical substance (yeast gene YDR055W): 2.2
- The level of expressed mRNA in the presence of chemical substance/ (in its absence), gene YDR073W (yeast gene YDR073W, ratio of DNA chip fluorescence intensity to that without chemical substance): 1.0
- The level of expressed mRNA in the presence of chemical substance/ in its absence, gene YDR079W (yeast gene YDR079W, energy system protein genes, 2 h culture with the chemical, ratio to control without chemical): 1.3
- The level of expressed mRNA in the presence of chemical substance/ (ratio to absence), gene YDR079W (yeast gene YDR079W, mitochondria-located protein genes, 2 h culture with chemical): 1.3
- The level of expressed mRNA in the presence of chemical substance/The level of expressed mRNA in the absence of chemical substance (yeast gene YDR084C): 0.7
- The level of expressed mRNA in the presence of chemical substance/The level of expressed mRNA in the absence of chemical substance (yeast gene YDR085C): 1.7
- The level of expressed mRNA in the presence of chemical substance/The level of expressed mRNA in the absence of chemical substance (yeast gene YDR104C): 1.0
- The level of expressed mRNA in the presence of chemical substance/The level of expressed mRNA in the absence of chemical substance (yeast gene YDR115W): 1.2
- The level of expressed mRNA in the presence of chemical substance/The level of expressed mRNA in the absence of chemical substance (yeast gene YDR259C): 1.2
- The level of expressed mRNA in the presence of chemical substance/ (in its absence), gene YDR297W (yeast gene YDR297W, ratio of DNA chip fluorescence intensity to that without chemical substance): 1.4
- The level of expressed mRNA in the presence of chemical substance/The level of expressed mRNA in the absence of chemical substance (yeast gene YDR315C): 1.1
- The level of expressed mRNA in the presence of chemical substance/The level of expressed mRNA in the absence of chemical substance (yeast gene YDR358W): 1.0
- The level of expressed mRNA in the presence of chemical substance/ (ratio to absence), gene YDR377W (yeast gene YDR377W, mitochondria-located protein genes, 2 h culture with chemical): 1.4
- The level of expressed mRNA in the presence of chemical substance/ (in its absence), gene YDR387C (yeast gene YDR387C, ratio of DNA chip fluorescence intensity to that without chemical substance): 2.0
- The level of expressed mRNA in the presence of chemical substance/The level of expressed mRNA in the absence of chemical substance (yeast gene YDR388W): 1.6
- The level of expressed mRNA in the presence of chemical substance/The level of expressed mRNA in the absence of chemical substance (yeast gene YDR432W): 0.6
- The level of expressed mRNA in the presence of chemical substance/The level of expressed mRNA in the absence of chemical substance (yeast gene YDR481C): 1.2
- The level of expressed mRNA in the presence of chemical substance/The level of expressed mRNA in the absence of chemical substance (yeast gene YDR510W): 1.6
- The level of expressed mRNA in the presence of chemical substance/ (ratio to absence of chemical substance) (yeast gene YEL039C): 1.7
- The level of expressed mRNA in the presence of chemical substance/The level of expressed mRNA in the absence of chemical substance (yeast gene YEL042W): 1.6
- The level of expressed mRNA in the presence of chemical substance/The level of expressed mRNA in the absence of chemical substance (yeast gene YEL066W): 1.9
- The level of expressed mRNA in the presence of chemical substance/ (in its absence), gene YER015W (yeast gene YER015W, ratio of DNA chip fluorescence intensity to that without chemical substance): 1.0
- The level of expressed mRNA in the presence of chemical substance/The level of expressed mRNA in the absence of chemical substance (yeast gene YER039C): 1.2
- The level of expressed mRNA in the presence of chemical substance/ (ratio to absence of chemical substance) (yeast gene YER057C): 1.8
- The level of expressed mRNA in the presence of chemical substance/The level of expressed mRNA in the absence of chemical substance (yeast gene YER107C): 0.7
- The level of expressed mRNA in the presence of chemical substance/The level of expressed mRNA in the absence of chemical substance (yeast gene YER130C): 0.9
- The level of expressed mRNA in the presence of chemical substance/The level of expressed mRNA in the absence of chemical substance (yeast gene YFL028C): 1.3
- The level of expressed mRNA in the presence of chemical substance/The level of expressed mRNA in the absence of chemical substance (yeast gene YFL043C): 1.1
- The level of expressed mRNA in the presence of chemical substance/ (in its absence), gene YGL035C (yeast gene YGL035C, ratio of DNA chip fluorescence intensity to that without chemical substance): 1.3
- The level of expressed mRNA in the presence of chemical substance/ (in its absence), gene YGL115W (yeast gene YGL115W, ratio of DNA chip fluorescence intensity to that without chemical substance): 1.0
- The level of expressed mRNA in the presence of chemical substance/ (ratio to absence of chemical substance) (yeast gene YGL115W): 1.0
- The level of expressed mRNA in the presence of chemical substance/The level of expressed mRNA in the absence of chemical substance (yeast gene YGL158W): 0.2
- The level of expressed mRNA in the presence of chemical substance/ (ratio to absence), gene YGL187C (yeast gene YGL187C, mitochondria-located protein genes, 2 h culture with chemical): 0.7
- The level of expressed mRNA in the presence of chemical substance/ (in its absence), gene YGL205W (yeast gene YGL205W, ratio of DNA chip fluorescence intensity to that without chemical substance): 0.4
- The level of expressed mRNA in the presence of chemical substance/The level of expressed mRNA in the absence of chemical substance (yeast gene YGL229C): 1.1
- The level of expressed mRNA in the presence of chemical substance/ in its absence, gene YGR062C (yeast gene YGR062C, energy system protein genes, 2 h culture with the chemical, ratio to control without chemical): 1.6
- The level of expressed mRNA in the presence of chemical substance/ (ratio to absence), gene YGR062C (yeast gene YGR062C, mitochondria-located protein genes, 2 h culture with chemical): 1.6
- The level of expressed mRNA in the presence of chemical substance/ (in its absence), gene YGR096W (yeast gene YGR096W, ratio of DNA chip fluorescence intensity to that without chemical substance): 0.8
- The level of expressed mRNA in the presence of chemical substance/The level of expressed mRNA in the absence of chemical substance (yeast gene YGR136W): 1.3
- The level of expressed mRNA in the presence of chemical substance/The level of expressed mRNA in the absence of chemical substance (yeast gene YGR189C): 1.5
- The level of expressed mRNA in the presence of chemical substance/The level of expressed mRNA in the absence of chemical substance (yeast gene YGR213C): 1.6
- The level of expressed mRNA in the presence of chemical substance/The level of expressed mRNA in the absence of chemical substance (yeast gene YGR257C): 1.2
- The level of expressed mRNA in the presence of chemical substance/ (in its absence), gene YGR287C (yeast gene YGR287C, ratio of DNA chip fluorescence intensity to that without chemical substance): 1.5
- The level of expressed mRNA in the presence of chemical substance/ (in its absence), gene YGR288W (yeast gene YGR288W, ratio of DNA chip fluorescence intensity to that without chemical substance): 1.3
- The level of expressed mRNA in the presence of chemical substance/ (ratio to absence of chemical substance) (yeast gene YHL028W): 0.7
- The level of expressed mRNA in the presence of chemical substance/ (ratio to absence of chemical substance) (yeast gene YHL046C): 0.4
- The level of expressed mRNA in the presence of chemical substance/The level of expressed mRNA in the absence of chemical substance (yeast gene YHR004C): 0.8
- The level of expressed mRNA in the presence of chemical substance/The level of expressed mRNA in the absence of chemical substance (yeast gene YHR071W): 1.8
- The level of expressed mRNA in the presence of chemical substance/The level of expressed mRNA in the absence of chemical substance (yeast gene YHR139C): 3.5
- The level of expressed mRNA in the presence of chemical substance/The level of expressed mRNA in the absence of chemical substance (yeast gene YHR142W): 1.1
- The level of expressed mRNA in the presence of chemical substance/ (in its absence), gene YHR210C (yeast gene YHR210C, ratio of DNA chip fluorescence intensity to that without chemical substance): 1.5
- The level of expressed mRNA in the presence of chemical substance/ (in its absence), gene YIL006W (yeast gene YIL006W, ratio of DNA chip fluorescence intensity to that without chemical substance): 1.0
- The level of expressed mRNA in the presence of chemical substance/ (ratio to absence of chemical substance) (yeast gene YIL011W): 2.5
